Key:
[1] = Kinetic viscosity (Canon Fenske viscometer, JIS K2283); format: physicochemical
Description: (§1) It will be noted that in the following Examples and Comparative Examples, an acid value, moisture content, kinetic viscosity, flash point, oxidation stability, dielectric breakdown voltage, specific permittivity, and a content of fatty acid triglyceride are, respectively, values measured according to the following methods. • (1) Acid value: determined by a method pursuant to a potentiometric method of JIS K1557. • (2) Moisture content: determined by a method pursuant to the Carl Fisher method of JIS K0068. • (3) Kinetic viscosity: determined by a method pursuant to the Canon Fenske viscometer of JIS K2283. • (4) Flash point: determined by a method pursuant to the Cleaveland open-cup method of JIS K2265. • (5) Oxidation stability: determined by a method pursuant to the electrical insulating oil testing method of JIS C2101. • (6) Dielectric breakdown voltage: determined by a method pursuant to the electric insulating oil testing method of JIS C2101. • (7) Specific permittivity: determined by a method pursuant to the electric insulating oil testing method of JIS C2101. • (8) Content of fatty acid triglyceride: about 40 mg of a sample was placed in a 3-ml vial container, to which 0.5 ml of pyridine, 0.4 ml of hexamethyldisilazane and 0.2 ml of trimethylchlorosilane were added, followed by trimethylsilylation at 80° C. for 30 minutes and subjecting the resulting supernatant liquid to gas chromatographic analysis.

[2] = Flash point (Cleaveland open-cup method, JIS K2265); format: physicochemical
Description: as §1

[3] = Specific permittivity (JIS C2101); format: physicochemical
Description: as §1

[4] = Dielectric breakdown voltage (JIS C2101); format: physicochemical
Description: as §1

[5] = Oxidation stability test (JIS C2101); format: physicochemical; details: for Oxidation stability test, 120° C. after 75 hours: acid value after 120° C.; for Oxidation stability test, Initial value: acid value before the test
Protocol: In order to ensure good stability to oxygen and heat, the base agent for electrical insulating oils of the invention should preferably have a total acid value of not higher than 0.5 mg of KOH/g, more preferably not higher than 0.3 mg of KOH/g, after deterioration in an oxidation stability test (120° C., 75 hours) described in JIS C2101.
as §1

human being = details: in vivo; cited from earlier work
rabbit = details: in vivo; cited from earlier work

| Compound | Kinetic viscosity (40° C.) [1] [mm^2/s] | Flash point [2] [°C] | Specific permittivity (80° C.) [3] | Di-electric breakdown voltage [4] [KV/2.5 mm] | Oxidation stability test, 120° C. after 75 hours [5] [mgKOH/g] | Oxidation stability test, Initial value [5] [mgKOH/g] | Dermal irritation average point (human being) | Eye irritation (rabbit) |
| --- | --- | --- | --- | --- | --- | --- | --- | --- |
| CCCCCCCCCCCC(=O)OCC(CC)CCCC (centres unmarked) [2-ethyl hexyl laurate, 2-ethylhexyl laurate, reference compound] | 5 | 175 | 2.7 | 78 | 0.3 | 0.002 | – | – |
| CCCCC(CC)C(=O)OCC(COC(=O)C(CC)CCCC)OC(=O)C(CC)CCCC (centres unmarked) [2-ethylhexanoic acid triglyceride] | – | – | – | – | – | – | test: average point = 0.05 | rabbit, 100%, OECD 405 method: no |
| CCCCCCCC(=O)OCC(COC(=O)CCCCCCC)OC(=O)CCCCCCC [base agent B, caprylic acid triglyceride] | 12.5 | 235 | 3.8 | 71 | 0.4 | 0.002 | – | – |
| CCCCC(CC)C(=O)OCC(COC(=O)C(CC)CCCC)OC(=O)C(CC)CCCC (centres unmarked) [base agent E, 2-ethylhexanoic acid triglyceride] | 16 | 220 | 3.5 | 73 | 0.2 | 0.008 | – | – |
| CC(CC(=O)OCC(COC(=O)CC(C)CC(C)(C)C)(COC(=O)CC(C)CC(C)(C)C)COC(=O)CC(C)CC(C)(C)C)CC(C)(C)C (centres unmarked) [pentaerythritol ester of 3,5,5-trimethylhexanoic acid, reference compound] | 110 | >250 | >3.0 | 55 | 0.8 | 0.02 | – | – |
